From PMC3863970 (Nature Communications, 2013)
Entries after “also recorded” stand apart in the source; their conditions may differ.

How the values were obtained:
rSH/1:AH/1-NA virus = tested on: rSH/1:AH/1-NA virus; parameters: species or system influenza A(H7N9) virus; conditions: in vivo
rSH/1 virus = tested on: rSH/1 virus; parameters: species or system influenza A(H7N9) virus; conditions: in vivo

With CCOC(=O)C1=C[C@@H](OC(CC)CC)[C@H](NC(C)=O)[C@@H](N)C1 [Oseltamivir, oseltamivir] the “reduction in viral lung titres” value (rSH/1:AH/1-NA virus; po) was 1 log and the “effect on viral lung titres” value (rSH/1 virus; po) was “no effect; also recorded: does not suppress H7N9 virus replication”.

In the case of CC(=O)N[C@H]1[C@H]([C@H](O)[C@H](O)CO)OC(C(=O)O)=C[C@@H]1N=C(N)N [Zanamivir, zanamivir], the “viral lung titres compared with mice treated with vehicle only” value (rSH/1:AH/1-NA virus) is reported as “significantly reduced” and the “viral lung titres compared with mice treated with vehicle only” value (rSH/1 virus) is reported as “significantly reduced”.
